In patent US8741862B2, “PHD2 inhibition for blood vessel normalization, and uses thereof” (VIB VZW, priority 2009, dated 2014):
Values joined by “and” are separate entries in the source; they are usually repeats but may differ in a detail not shown here. Equal entries are not always repeated. Where two headings read alike, the source gives them in different places. Values belong to the molecule of their own block, whether it stands above or below them.

Tests used:
B16 tumor = assay: Response of B16 tumors to suboptimal cisplatin chemotherapy in WT and PHD2+/− mice; type: in vivo, mouse; conditions: for anti-tumor effect in PHD2+/− mice / anti-tumor effect in WT mice: B16 tumor
Protocol: […] TUMOR MODELS: 5 105 B16F10.9 melanoma and 105 Lewis lung carcinoma (LLC) cells were injected subcutaneously into the right flank or foot pad, respectively. […] Circulating tumor cells were scored on 1 ml of peripheral blood upon red blood cell lysis.
[…] […] The mice were sacrificed at defined time intervals after cell inoculation or when tumors reached a maximum size of 2 cm3.

[1] = system: Lewis Lung Carcinoma (LLC); assay: Response of LLC tumors to suboptimal doxorubicin chemotherapy in WT and PHD2+/− mice; conditions: doxorubicin 2.5 mg/kg 3×/week
[2] = Cornea pocket assay with pellets containing VEGF or FGF-2; type: in vivo, mouse
From the text: We also performed cornea pocket assays and implanted pellets, containing VEGF or FGF-2, in endothelial PHD2Cre/+ mice.

[3] = cisplatin 2.5 mg/kg 3×/week, listed as Cisplatin
[4] = PHD2+/− hearts upon doxorubicin treatment
[5] = PHD2+/− hearts upon doxorubicin treatment, versus WT

Molecule: N.N.[Cl][Pt][Cl] [cisplatin]
anti-tumor effect in PHD2+/− mice (B16 tumor; cisplatin 2.5 mg/kg 3×/week): effective
anti-tumor effect in PHD2+/− mice (B16 tumor; [3]): reduced the volume (A) and weight (B) of B16 tumor
anti-tumor effect in WT mice (B16 tumor; cisplatin 2.5 mg/kg 3×/week): does not kill B16 tumor cells
anti-tumor effect in WT mice (B16 tumor; [3]): not effective
tumor size, smaller in PHD2+/− than WT mice (B16 tumor; cisplatin 2.5 mg/kg 3×/week, B16 tumors, 11 days after initiation of chemotherapy): 60%
tumor apoptosis (active caspase 3) (B16 tumor; tumors implanted in PHD2+/− mice upon cisplatin treatment): increased
tumor proliferation (B16 tumor; tumors implanted in PHD2+/− mice upon cisplatin treatment, compared to WT): reduced

capillary perfusion [4]: preserved
oxidative stress (cardiac ROS) [4]: reduced
Brain Natriuretic Peptide (BNP) expression [5]: lower levels
interstitial fibrosis [5]: reduced interstitial fibrosis
capillary perfusion (WT hearts upon doxorubicin treatment): not preserved
ejection fraction (EF) (wild-type mice upon doxorubicin treatment): decreases
Molecule: COc1cccc2c1C(=O)c1c(O)c3c(c(O)c1C2=O)C[C@@](O)(C(=O)CO)C[C@@H]3O[C@H]1C[C@H](N)[C@H](O)[C@H](C)O1 [doxorubicin]
cardiac hypertrophy (PHD1 and PHD3 deficient mice after 2 months of treatment): significant cardiac hypertrophy
ejection fraction (EF) (PHD2+/− mice upon doxorubicin treatment): maintain or preserve the baseline EF levels
cardiac damage (doxorubicin 2.5 mg/kg 3×/week for four weeks, PHD2+/− mice): protected against cardiac damage
anti-tumor effect in PHD2+/− mice [1]: responsive
anti-tumor effect in PHD2+/− mice ([1]; listed as Doxorubicin): reduced the volume of LLC (Lewis lung carcinoma) tumor
anti-tumor effect in WT mice ([1]; WT mice): not effective

Molecule: FGF-2: growth factor implanted as pellet in cornea pocket assay
branching points per mm2 ([2]; PHD2Cre/+ mice, N=4): 580±87 per mm2
vessel area ([2]; PHD2Cre/+ mice, N=4): 33.4±4%
branching points per mm2 ([2]; PHD2lox/+ mice, N=4): 511±48 per mm2

Molecule: VEGF
vessel area ([2]; PHD2Cre/+ mice, N=4): 23.2±1.6%
vessel area ([2]; PHD2lox/+ mice, N=4): 27.7±2.3%
branching points per mm2 ([2]; mouse, in vivo): 387±52 per mm2 and 345±60 per mm2
